Reference: publication PMC7153038, “Pharmacologic inhibition of RGD‐binding integrins ameliorates fibrosis and improves function following kidney injury” (Physiological Reports, 2020)
Several values for one entry are separate records, joined by “and”; a condition that tells them apart may be missing. Equal entries are not always repeated.

Key:
kidney gene expression = test: aristolochic acid kidney injury model, kidney RNA sequencing; type: in vivo, mouse; conditions: for Fold change of Foxd1 by RNA‐seq, AA + CWHM-12: vehicle 9.55; for Fold change of Gli1 by RNA‐seq, AA + CWHM-12: vehicle 20.44; for Fold change of Crlf1 by RNA‐seq, AA + CWHM-12: vehicle 37.57
Method: (§1) Alzet osmotic minipumps (Cupertino, CA) were implanted subcutaneously in 8‐ to 10‐week‐old wild‐type male ICR outbred mice (Envigo) one day prior to induction of kidney injury to deliver vehicle (DMSO/H2O 1:1) or CWHM‐12 at a dose of 100 mg/kg per day. A single 5 mg/kg dose of aristolochic acid I sodium salt (Sigma‐Aldrich, A9451) in PBS was administered intraperitoneally to induce kidney injury, and mice were monitored daily for 27 days thereafter. Control (uninjured) mice were injected with an equal volume of PBS. Blood was obtained by maxillary vein puncture on days 0, 5 (peak injury), and 28 (study endpoint). For testing CWHM‐680, oral gavage (100 mg/kg per day) was started one day prior to injection of aristolochic acid I sodium salt and continued once daily until the study endpoint. Blood was obtained at days 0, 7, and 23 (study endpoint). […] Serum creatinine was measured by liquid chromatography–mass spectrometry (LC–MS/MS) at the University of Alabama O’Brien Center Bioanalytical Core. CWHM‐12 and CWHM‐680 concentrations were measured in plasma samples by liquid chromatography–tandem mass spectrometry (LC/MS/MS) using compound spiked into control plasma as a standard. All experiments were performed under protocols approved by the Institutional Animal Care and Use Committee at St. Louis University.
Total RNA was isolated from four kidneys from each of the three study groups using the RNeasy Plus Mini Kit (Qiagen). The groups were as follows: (a) aristolochic acid plus vehicle, (b) aristolochic acid plus CWHM‐12, and (c) PBS plus vehicle. After ribosomal depletion, we constructed barcoded sequencing libraries using the Ion Total RNA‐seq v2 kits (Life Technologies) according to the manufacturer's instructions. Sequencing was performed on an Ion Torrent Proton with mean read lengths of 85–110 nucleotides, and reads were aligned to the mouse mm10 genome using the TMAP aligner map4 algorithm. Soft clipping at both 5′ and 3′ ends of the reads was permitted during alignment to accommodate spliced reads, with a minimum seed length of 20 nucleotides. Genome‐wide strand‐specific nucleotide coverages were calculated from the aligned bam files for each sample using the “genomecoveragebed” program in BEDTools (Quinlan & Hall, 2010), and the nucleotide coverage for all nonredundant exons for each gene was summed using custom R scripts (http://www.Rproject.org). Normalization factors were calculated by averaging the total exon coverage for all replicates and dividing this average by the total exon coverage for each individual sample. The total coverage for each gene in each replicate was then multiplied by these factors after adding an offset of 1 to each gene to preclude division by 0 in subsequent calculations. The averages and p values of the coverage values for all genes in the individual groups were calculated using Microsoft Excel, using a two‐tailed t‐test. The expression values for each gene are the normalized strand‐specific total nucleotide coverage for each gene. The complete data set can be accessed at https://figshare.com/s/54c7f78b4523873e9b00.

[1] = system: aristolochic acid-induced kidney injury in ICR mice; test: aristolochic acid kidney injury model, serum creatinine; type: in vivo, mouse; conditions: AA-injured mice, 100 mg/kg/day s.c. minipump; vehicle 0.32
Method: as §1

[2] = AA-injured, 100 mg/kg/day s.c. minipump, relative to uninjured, 100 mg/kg/day
[3] = AA-injured, 100 mg/kg/day s.c. minipump, relative to uninjured, listed as CWHM−12, 100 mg/kg/day

## CC(C)(C)c1cc(Br)cc([C@H](CC(=O)O)NC(=O)CNC(=O)c2cc(O)cc(NC3=NCC(O)CN3)c2)c1 (stereo partly drawn) [CWHM‐12]
Kidney gene expression; AA-injured, 100 mg/kg/day s.c. minipump, relative to uninjured, vehicle 7.4
  Fold change of Tgfb1 by RNA‐seq, AA + CWHM-12: 4.2 fold
Kidney gene expression; AA-injured, 100 mg/kg/day s.c. minipump, relative to uninjured, vehicle 7.78
  Fold change of Thbs2 by RNA‐seq, AA + CWHM-12: 4.36 fold
Kidney gene expression; AA-injured, 100 mg/kg/day s.c. minipump, relative to uninjured, vehicle 8.17
  Fold change of Gda by RNA‐seq, AA + CWHM-12: 5.15 fold
Kidney gene expression; AA-injured, 100 mg/kg/day s.c. minipump, relative to uninjured, vehicle 8.3
  Fold change of Tgfb3 by RNA‐seq, AA + CWHM-12: 4.9 fold
Kidney gene expression; AA-injured, 100 mg/kg/day s.c. minipump, relative to uninjured, vehicle 8.72
  Fold change of Thbs4 by RNA‐seq, AA + CWHM-12: 3.97 fold
Kidney gene expression; AA-injured, 100 mg/kg/day s.c. minipump, relative to uninjured, vehicle 8.77
  Fold change of Nes by RNA‐seq, AA + CWHM-12: 3.91 fold
Kidney gene expression; [2]
  Fold change of Foxd1 by RNA‐seq, AA + CWHM-12: 3.3 fold
  Fold change of Gli1 by RNA‐seq, AA + CWHM-12: 9.2 fold
  Fold change of Crlf1 by RNA‐seq, AA + CWHM-12: 3.9 fold
Kidney gene expression; [3]
  Fold change of Foxd1 by RNA‐seq, AA + CWHM-12: 3.27 fold
  Fold change of Gli1 by RNA‐seq, AA + CWHM-12: 9.17 fold
  Fold change of Crlf1 by RNA‐seq, AA + CWHM-12: 3.88 fold
Kidney gene expression; AA-injured, 100 mg/kg/day s.c. minipump, relative to uninjured, vehicle 12.6
  Fold change of Fn1 by RNA‐seq, AA + CWHM-12: 6.6 fold
Kidney gene expression; AA-injured, 100 mg/kg/day s.c. minipump, relative to uninjured, vehicle 24.6
  Fold change of Mmp2 by RNA‐seq, AA + CWHM-12: 9.9 fold
Kidney gene expression; AA-injured, 100 mg/kg/day s.c. minipump, relative to uninjured, vehicle 24.87
  Fold change of Gli3 by RNA‐seq, AA + CWHM-12: 15.02 fold
Kidney gene expression; AA-injured, 100 mg/kg/day s.c. minipump, relative to uninjured, vehicle 28.0
  Fold change of Col3a1 by RNA‐seq, AA + CWHM-12: 10.0 fold
Kidney gene expression; AA-injured, 100 mg/kg/day s.c. minipump, relative to uninjured, vehicle 32.44
  Fold change of Aldh1a2 by RNA‐seq, AA + CWHM-12: 21.06 fold
Kidney gene expression; AA-injured, 100 mg/kg/day s.c. minipump, relative to uninjured, vehicle 42.1
  Fold change of Col1a1 by RNA‐seq, AA + CWHM-12: 10.4 fold
Kidney gene expression; AA-injured, 100 mg/kg/day s.c. minipump, relative to uninjured, vehicle 55.80
  Fold change of Rgs16 by RNA‐seq, AA + CWHM-12: 26.19 fold
Kidney gene expression; AA-injured, 100 mg/kg/day s.c. minipump, vehicle 12-fold
  Cdk1 expression level, fold higher, RNA-seq: 1.9 fold
Kidney gene expression; AA-injured, 100 mg/kg/day s.c. minipump, vehicle 23-fold
  Ccnb1 expression level, fold higher, RNA-seq: 1.4 fold
Kidney gene expression; AA-injured, group average
  0610005C13Rik RNA-seq normalized coverage, AA CWHM12.AVE: 114105
  0610007N19Rik RNA-seq normalized coverage, AA CWHM12.AVE: 54308
  0610007P14Rik RNA-seq normalized coverage, AA CWHM12.AVE: 56128
  0610008F07Rik RNA-seq normalized coverage, AA CWHM12.AVE: 5309
  0610009B14Rik RNA-seq normalized coverage, AA CWHM12.AVE: 1314
Kidney gene expression; AA-injured, replicates 1-3
  0610005C13Rik RNA-seq normalized coverage, AA CWHM12 individual replicates: 95741 and 94900 and 151673
  0610007N19Rik RNA-seq normalized coverage, AA CWHM12 individual replicates: 42985 and 46254 and 73685
  0610007P14Rik RNA-seq normalized coverage, AA CWHM12 individual replicates: 42349 and 51087 and 74947
  0610008F07Rik RNA-seq normalized coverage, AA CWHM12 individual replicates: 4229 and 2946 and 8751
  0610009B14Rik RNA-seq normalized coverage, AA CWHM12 individual replicates: 1407 and 899 and 1635
Kidney gene expression; RNA-seq
  0610005C13Rik AA CWHM12/AA Vehicle.RATIO: 2.041
  0610005C13Rik AA CWHM12/PBS Vehicle.RATIO: 0.462
  0610007N19Rik AA CWHM12/AA Vehicle.RATIO: 1.380
  0610007N19Rik AA CWHM12/PBS Vehicle.RATIO: 1.337
  0610007P14Rik AA CWHM12/AA Vehicle.RATIO: 1.629
  0610007P14Rik AA CWHM12/PBS Vehicle.RATIO: 1.142
  0610008F07Rik AA CWHM12/AA Vehicle.RATIO: 4.723
  0610008F07Rik AA CWHM12/PBS Vehicle.RATIO: 0.373
  0610009B14Rik AA CWHM12/AA Vehicle.RATIO: 1.572
  0610009B14Rik AA CWHM12/PBS Vehicle.RATIO: 1.915
[1]
  serum creatinine at day 27: 0.15 mg/dL
